Reference: patent US12528790B2, “Amide derivative having antiviral activity” (Shionogi & Co., Ltd., priority 2020, dated 2026)

How the values were obtained:
RSV A2 strain = assay: In vitro CPE (CytoPathic Effect) inhibition effect evaluation test, RSV type A; format: cell-based; conditions: human respiratory syncytial virus; inhibitory effect against RSV type A (RSV A2 strain), HEp-2 cells, CPE inhibition; read-out: EC50
Summary of the method: (§1)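 EC50 is the concentration giving 50% inhibition of virus-induced cytopathic effect, fitted by nonlinear regression from CellTiter-Glo 2.0 viability. Compounds in 3-fold series were co-incubated at 37 °C with HEp-2 cells and RSV: A2 strain for 4 days, B (Wash/18537) for 5 days; uninfected wells served as control.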

[1] = system: RSV B (Wash/18537 strain); assay: In vitro CPE (CytoPathic Effect) inhibition effect evaluation test, RSV type B; format: cell-based; conditions: human respiratory syncytial virus, inhibitory effect against RSV type B, CPE inhibition; read-out: EC50
Summary of the method: as §1

Compound | EC50 (RSV A2 strain) [nM] | EC50 [1] [nM]
CC(F)(F)c1nc(N2CC3(CCOCC3)c3cc(OC4CCN(CC(F)(F)F)CC4)ccc32)ncc1C(=O)NC1(C(=O)O)C2CC3CC(C2)CC1C3 (centres unmarked) [Compound I-465] | < 10 | < 10
O=C(NC1(C(=O)O)C2CC3CC(C2)CC1C3)c1cnc(N2CC3(CCOCC3)c3cc(-n4ncc5c4CCN(CC(F)(F)F)C5)ccc32)nc1C(F)(F)F (centres unmarked) [Compound I-472] | < 10 | < 10
O=C(NC1(C(=O)O)C2CC3CC(C2)CC1C3)c1cnc(N2CC3(CCCCC3)c3cc(OC4CC5(CCN(CC(F)(F)F)CC5)C4)ccc32)nc1C(F)(F)F (centres unmarked) [Compound I-473] | < 10 | 100 to 5000
O=C(NC1(C(=O)O)C2CC3CC(C2)CC1C3)c1cnc(N2CC3(CCCC3)c3cc(OC4CCN(CC(F)(F)F)CC4)ccc32)nc1C(F)(F)F (centres unmarked) [Compound I-474] | < 10 | 10 to 100
O=C(N[C@]1(C(=O)O)[C@@H]2CC3C[C@H]1C[C@@](F)(C3)C2)c1cnc(-c2cn(C3CCC(F)(F)CC3)c3cc(O[C@H]4CC[C@H](N5CC(F)(F)C5)CC4)ccc23)nc1C(F)(F)F [Compound I-479] | < 10 | < 10
CC(F)(F)c1nc(-c2cn(C3CCC(F)(F)CC3)c3cc(O[C@H]4CC[C@H](N5CC(F)(F)C5)CC4)ccc23)ncc1C(=O)NC1(C(=O)O)C2CC3CC(C2)CC1C3 (some centres unmarked) [Compound I-481] | < 10 | < 10
O=C(NC1(C(=O)O)C2CC3CC(C2)CC1C3)c1cnc(N2CC3(CCCCC3)c3cc(OC4CCN(CC(F)F)CC4)ccc32)nc1C(F)(F)F (centres unmarked) [Compound I-482] | < 10 | 10 to 100
O=C(NCC(F)(F)F)c1ccc2c(c1)C1(CCOCC1)CN2c1ncc(C(=O)NC2(C(=O)O)C3CC4CC(C3)CC2C4)c(C(F)(F)F)n1 (centres unmarked) [Compound I-483] | < 10 | 100 to 5000
O=C(NC1(C(=O)O)C2CC3CC(C2)CC1C3)c1cnc(N2CC3(CCCCC3)c3cc(OC4CCN(CC5(F)COC5)CC4)ccc32)nc1C(F)(F)F (centres unmarked) [Compound I-484] | < 10 | 10 to 100
O=C(NC1(C(=O)O)C2CC3CC(C2)CC1C3)c1cnc(N2CC3(CCCCC3)c3cc(OC4CCN(C5CSC5)CC4)ccc32)nc1C(F)(F)F (centres unmarked) [Compound I-485] | < 10 | 10 to 100
O=C(NC1(C(=O)O)C2CC3CC(C2)CC1C3)c1cnc(N2CC3(CCCC3)c3cc(OC4CCC5(CC4)COC5)ccc32)nc1C(F)(F)F (centres unmarked) [Compound I-488] | < 10 | < 10
O=C(NC1(C(=O)O)C2CC3CC(C2)CC1C3)c1cnc(N2CC3(CCOCC3)c3cc(OCCC(F)(F)F)ncc32)nc1C(F)(F)F (centres unmarked) [Compound I-489] | < 10 | < 10
O=C(NC1(C(=O)O)C2CC3CC(C2)CC1C3)c1cnc(N2CC3(CCOCC3)c3cc(C(=O)N4CC(C(F)(F)F)C4)ccc32)nc1C(F)(F)F (centres unmarked) [Compound I-490] | < 10 | < 10
O=C(NC1(C(=O)O)C2CC3CC(C2)CC1C3)c1cnc(N2CC3(CCOCC3)c3cc(C(=O)N4CC(F)(F)C4)ccc32)nc1C(F)(F)F (centres unmarked) [Compound I-491] | < 10 | 10 to 100
CC(=O)N1CC(N2CCC(Oc3ccc4c(c3)C3(CCCCC3)CN4c3ncc(C(=O)NC4(C(=O)O)C5CC6CC(C5)CC4C6)c(C(F)(F)F)n3)CC2)C1 (centres unmarked) [Compound I-492] | < 10 | 10 to 100
O=C(NC1(C(=O)O)C2CC3CC(C2)CC1C3)c1cnc(N2CC3(CCC(F)(F)CC3)c3cc(OC4CCN(CC(F)(F)F)CC4)ccc32)nc1C(F)(F)F (centres unmarked) [Compound I-493] | < 10 | < 10
O=C(NC1(C(=O)O)C2CC3CC(C2)CC1C3)c1cnc(N2CC3(CCCCC3)c3cc(OC4CN(c5ncc(F)cn5)C4)ccc32)nc1C(F)(F)F (centres unmarked) [Compound I-494] | < 10 | < 10
O=C(NC1(C(=O)O)C2CC3CC(C2)CC1C3)c1cnc(N2CC3(CCCCC3)c3cc(OC4CN(CC(F)(F)F)C4)ccc32)nc1C(F)(F)F (centres unmarked) [Compound I-495] | < 10 | < 10
CCC(CC)n1cc(-c2ncc(C(=O)NC3(C(=O)O)C4CC5CC(C4)CC3C5)c(C(F)(F)F)n2)c2ccc(O[C@H]3CC[C@H](N4CC(F)(F)C4)CC3)cc21 (some centres unmarked) [Compound I-496] | < 10 | < 10
O=C(NC1(C(=O)O)C2CC3CC(C2)CC1C3)c1cnc(-c2cn(C3CC3)c3cc(O[C@H]4CC[C@H](N5CC(F)(F)C5)CC4)ccc23)nc1C(F)(F)F (some centres unmarked) [Compound I-497] | < 10 | < 10
O=C(NC1(C(=O)O)C2CC3CC(C2)CC1C3)c1cnc(-c2cn(C3CCC4(CC3)COC4)c3cc(O[C@H]4CC[C@H](N5CC(F)(F)C5)CC4)ccc23)nc1C(F)(F)F (some centres unmarked) [Compound I-498] | < 10 | < 10
O=C(NC1(C(=O)O)C2CC3CC(C2)CC1C3)c1cnc(-c2cn(C3CCOCC3)c3cc(O[C@H]4CC[C@H](N5CC(F)(F)C5)CC4)ccc23)nc1C(F)(F)F (some centres unmarked) [Compound I-499] | < 10 | < 10

Compound | EC50 (RSV A2 strain) [nM] | EC50 [1] [nM]
O=C(NC1(C(=O)O)C2CC3CC(C2)CC1C3)c1cnc(N2CC3(CCCCC3)c3cc(O[C@H]4CC[C@@H](N5CC(F)(F)C5)CC4)ccc32)nc1C(F)(F)F (some centres unmarked) [Compound I-500] | < 10 | < 10
O=C(NC1(C(=O)O)C2CC3CC(C2)CC1C3)c1cnc(N2CC3(CCCCC3)c3cc(O[C@H]4CC[C@H](n5cncn5)CC4)ccc32)nc1C(F)(F)F (some centres unmarked) [Compound I-501] | < 10 | < 10
O=C(NC1(C(=O)O)C2CC3CC(C2)CC1C3)c1cnc(N2CC3(CCCC3)c3cc(OC4CCN(C5CC(F)(F)C5)CC4)ccc32)nc1C(F)(F)F (centres unmarked) [Compound I-502] | < 10 | 10 to 100
CC(F)(F)c1nc(N2CC3(CCOCC3)c3cc(OC4CCN(c5ncc(F)cn5)CC4)ncc32)ncc1C(=O)NC1(C(=O)O)C2CC3CC(C2)CC1C3 (centres unmarked) [Compound I-503] | < 10 | < 10
O=C(NC1(C(=O)O)C2CC3CC(C2)CC1C3)c1cnc(N2CC3(CCCCC3)c3cc(C(=O)N4CCN(c5ncc(F)cn5)CC4)ccc32)nc1C(F)(F)F (centres unmarked) [Compound I-504] | < 10 | < 10
O=C(NC1(C(=O)O)C2CC3CC(C2)CC1C3)c1cnc(N2CC3(CCCCC3)c3cc(C(=O)N4CCN(CC(F)(F)F)CC4)ccc32)nc1C(F)(F)F (centres unmarked) [Compound I-505] | < 10 | < 10
CC(F)(F)c1nc(N2CC3(CCOCC3)c3cc(O[C@H]4CC[C@H](N5CC(F)(F)C5)CC4)ccc32)ncc1C(=O)NC1(C(=O)O)C2CC3CC(C2)CC1C3 (some centres unmarked) [Compound I-506] | < 10 | < 10
COC[C@@H](C)n1cc(-c2ncc(C(=O)NC3(C(=O)O)C4CC5CC(C4)CC3C5)c(C(F)(F)F)n2)c2ccc(O[C@H]3CC[C@H](N4CC(F)(F)C4)CC3)cc21 (some centres unmarked) [Compound I-507] | < 10 | < 10
COC[C@H](C)n1cc(-c2ncc(C(=O)NC3(C(=O)O)C4CC5CC(C4)CC3C5)c(C(F)(F)F)n2)c2ccc(O[C@H]3CC[C@H](N4CC(F)(F)C4)CC3)cc21 (some centres unmarked) [Compound I-508] | < 10 | < 10
O=C(NC1(C(=O)O)C2CC3CC(C2)CC1C3)c1ccc(-c2cn(C3CCC(F)(F)CC3)c3cc(OC4CCN(CC(F)(F)F)CC4)ccc23)nc1C(F)(F)F (centres unmarked) [Compound I-511] | < 10 | 10 to 100
CC(F)(F)CN1CCC(Oc2ccc3c(-c4ccc(C(=O)NC5(C(=O)O)C6CC7CC(C6)CC5C7)c(C(F)(F)F)n4)cn(C4CCC(F)(F)CC4)c3c2)CC1 (centres unmarked) [Compound I-512] | < 10 | 10 to 100
O=C(NC1(C(=O)O)C2CC3CC(C2)CC1C3)c1ccc(-c2cn(C3CC3)c3cc(O[C@H]4CC[C@H](N5CC(F)(F)C5)CC4)ccc23)nc1C(F)(F)F (some centres unmarked) [Compound I-513] | < 10 | < 10
O=C(NC1(C(=O)O)C2CC3CC(C2)CC1C3)c1ccc(-c2cn(C3CCC(F)(F)CC3)c3cc(O[C@H]4CC[C@@H](N5CC(F)(F)C5)CC4)ccc23)nc1C(F)(F)F (some centres unmarked) [Compound I-514] | < 10 | 10 to 100
O=C(NC1(C(=O)O)C2CC3CC(C2)CC1C3)c1cnc(N2CC3(CCCCC3)c3cc(OC4CCN(CC(F)(F)F)C4)ccc32)nc1C(F)(F)F (centres unmarked) [Compound I-517] | < 10 | 10 to 100
O=C(NC1(C(=O)O)C2CC3CC(C2)CC1C3)c1cnc(N2CC3(CCCCC3)c3cc(O[C@@H]4CCN(CC(F)(F)F)C4)ccc32)nc1C(F)(F)F (some centres unmarked) [Compound I-518] | < 10 | < 10
O=C(NC1(C(=O)O)C2CC3CC(C2)CC1C3)c1cnc(N2CC3(CCCCC3)c3cc(OC4CCN(c5ncco5)CC4)ccc32)nc1C(F)(F)F (centres unmarked) [Compound I-519] | < 10 | < 10
N#Cc1cnc(N2CCC(Oc3ccc4c(c3)C3(CCCCC3)CN4c3ncc(C(=O)NC4(C(=O)O)C5CC6CC(C5)CC4C6)c(C(F)(F)F)n3)CC2)nc1 (centres unmarked) [Compound I-520] | < 10 | < 10
N#CCN1CCC(Oc2ccc3c(c2)C2(CCCCC2)CN3c2ncc(C(=O)NC3(C(=O)O)C4CC5CC(C4)CC3C5)c(C(F)(F)F)n2)CC1 (centres unmarked) [Compound I-521] | < 10 | 10 to 100
COc1cnc(N2CCC(Oc3ccc4c(c3)C3(CCCCC3)CN4c3ncc(C(=O)NC4(C(=O)O)C5CC6CC(C5)CC4C6)c(C(F)(F)F)n3)CC2)nc1 (centres unmarked) [Compound I-522] | < 10 | < 10
O=C(NC1(C(=O)O)C2CC3CC(C2)CC1C3)c1cnc(N2CC3(CCCCC3)c3cc(OC4CCN(c5cnccn5)CC4)ccc32)nc1C(F)(F)F (centres unmarked) [Compound I-523] | < 10 | < 10
O=C(NC1(C(=O)O)C2CC3CC(C2)CC1C3)c1cnc(N2CC3(CCCCC3)c3cc(O[C@H]4CCN(c5ncc(F)cn5)C4)ccc32)nc1C(F)(F)F (some centres unmarked) [Compound I-524] | < 10 | 100 to 5000
